Type in all cases: functional
The test system of experiment [1] is Escherichia coli. As to the kind of experiment: Antimicrobial activity against rifampin-resistant Escherichia coli J53 transconjugated with Proteus vulgaris Pv8 expressing beta-lactamase PER-1 by […]. On the technique in general: In agar diffusion tests the substance spreads into inoculated agar from a disc or well.
In experiment [2] the test system is Proteus vulgaris. As to the kind of experiment: Antimicrobial activity against Proteus vulgaris Pv5 expressing beta-lactamase PER-1 by Etest.
For experiment [3], the system named is Escherichia coli. In words: Antimicrobial activity against rifampin-resistant Escherichia coli J53 transconjugated with Proteus vulgaris Pv5 expressing beta-lactamase PER-1 by Etest.
For experiment [4], the system named is Proteus vulgaris. In words: Antimicrobial activity against Proteus vulgaris Pv7 expressing beta-lactamase PER-1 by Etest.
Experiment [5] has as its system Escherichia coli. As to the kind of experiment: Antimicrobial activity against rifampin-resistant Escherichia coli J53 transconjugated with Proteus vulgaris Pv9 expressing beta-lactamase PER-1 by […].
For experiment [6], the system named is Escherichia coli. As to the kind of experiment: Antimicrobial activity against rifampin-resistant Escherichia coli J53 transconjugated with Proteus vulgaris Pv9 expressing beta-lactamase PER-1 by Etest.
The test system of experiment [7] is Escherichia coli. In words: Antimicrobial activity against rifampin-resistant Escherichia coli J53 transconjugated with Proteus vulgaris Pv5 expressing beta-lactamase PER-1 by […].
Experiment [8] concerns Escherichia coli. In words: Antimicrobial activity against rifampin-resistant Escherichia coli J53 transconjugated with Proteus vulgaris Pv8 expressing beta-lactamase PER-1 by Etest.
Experiment [9] deals with Proteus vulgaris. In words: Antimicrobial activity against Proteus vulgaris Pv8 expressing beta-lactamase PER-1 by Etest.
Experiment [10] relates to Proteus vulgaris. In words: Antimicrobial activity against Proteus vulgaris Pv7 expressing beta-lactamase PER-1 by […].
Experiment [11] concerns Proteus vulgaris. As to the kind of experiment: Antimicrobial activity against Proteus vulgaris Pv9 expressing beta-lactamase PER-1 by Etest.
The subject of experiment [12] is Providencia stuartii. In words: Antimicrobial activity against Providencia stuartii Ps5 expressing beta-lactamase PER-1 by […].
For experiment [13], the system named is Proteus vulgaris. As to the kind of experiment: Antimicrobial activity against Proteus vulgaris Pv9 expressing beta-lactamase PER-1 by […].
The subject of experiment [14] is Proteus vulgaris. In words: Antimicrobial activity against Proteus vulgaris Pv5 expressing beta-lactamase PER-1 by […].
Experiment [15] deals with Providencia stuartii. In words: Antimicrobial activity against Providencia stuartii Ps5 expressing beta-lactamase PER-1 by Etest.
The subject of experiment [16] is Proteus vulgaris. In words: Antimicrobial activity against Proteus vulgaris Pv8 expressing beta-lactamase PER-1 by […].
Experiment [17] deals with Escherichia coli. As to the kind of experiment: Antimicrobial activity against rifampin-resistant Escherichia coli J53 transconjugated with Proteus vulgaris Pv7 expressing beta-lactamase PER-1 by Etest.
Experiment [18] relates to Escherichia coli. As to the kind of experiment: Antimicrobial activity against rifampin-resistant Escherichia coli J53 transconjugated with Providencia stuartii Ps5 expressing beta-lactamase PER-1 by […].
For experiment [19], the system named is Escherichia coli. In words: Antimicrobial activity against rifampin-resistant Escherichia coli J53 transconjugated with Providencia stuartii Ps5 expressing beta-lactamase PER-1 by Etest.
Experiment [20] concerns Escherichia coli. In words: Antimicrobial activity against rifampin-resistant Escherichia coli J53 transconjugated with Proteus vulgaris Pv7 expressing beta-lactamase PER-1 by […].

Consider five compounds from ChEMBL document CHEMBL1649576, “Emergence of extended-spectrum beta-lactamase PER-1 in Proteus vulgaris and Providencia stuartii isolates from Algiers, Algeria” (2009).

Structures are written as SMILES. In brackets after ≈: the same amount, converted by molar mass. Where only a bound is given, the exact number is not on record here.

A word on the MIC: it is the lowest concentration found to suppress growth. Low values mean greater potency, high ones weaker potency. `CO/N=C(\C(=O)N[C@@H]1C(=O)N2C(C(=O)[O-])=C(C[N+]3(C)CCCC3)CS[C@H]12)c1csc(N)n1` [CEFEPIME]: the MIC in experiment [1] came out at 8 µg/mL (≈ 16.6 µM); in [2], 32 µg/mL (≈ 66.6 µM); in [3], 16 µg/mL (≈ 33.3 µM); in experiment [4], 16 µg/mL (≈ 33.3 µM); in experiment [5] it was 8 µg/mL (≈ 16.6 µM); in experiment [6] it was 8 µg/mL (≈ 16.6 µM). For the same compound, the MIC in [7] turned out to be 16 µg/mL (≈ 33.3 µM); in experiment [8] it was 8 µg/mL (≈ 16.6 µM); in [9], 32 µg/mL (≈ 66.6 µM); in experiment [10], 16 µg/mL (≈ 33.3 µM); in experiment [11], 8 µg/mL (≈ 16.6 µM); in experiment [12] it was 8 µg/mL (≈ 16.6 µM). Moreover, the MIC in [13] stood at 8 µg/mL (≈ 16.6 µM); in [14], 32 µg/mL (≈ 66.6 µM); in experiment [15], 8 µg/mL (≈ 16.6 µM); in experiment [16], 32 µg/mL (≈ 66.6 µM).

Consider `CO/N=C(\C(=O)N[C@@H]1C(=O)N2C(C(=O)O)=C(COC(C)=O)CS[C@H]12)c1csc(N)n1` [CEFOTAXIME], for which the MIC in [17] came to 31 µg/mL (≈ 68.1 µM); in [1], 16 µg/mL (≈ 35.1 µM); in experiment [2], 32 µg/mL (≈ 70.3 µM); in experiment [3], 32 µg/mL (≈ 70.3 µM); in experiment [4] it was 32 µg/mL (≈ 70.3 µM); in experiment [5] it was 32 µg/mL (≈ 70.3 µM). Besides, the MIC in [6] worked out at 32 µg/mL (≈ 70.3 µM); in experiment [7], 32 µg/mL (≈ 70.3 µM); in [18] it was 32 µg/mL (≈ 70.3 µM); in experiment [19], 32 µg/mL (≈ 70.3 µM); in experiment [8], 16 µg/mL (≈ 35.1 µM); in experiment [9], 32 µg/mL (≈ 70.3 µM). For the same compound, the MIC in [10], in [11], in experiment [20], in experiment [12], in experiment [13] and in experiment [14] was 32 µg/mL (≈ 70.3 µM) each time. Also, the MIC in experiment [15] and in experiment [16] was 32 µg/mL (≈ 70.3 µM) in each case.

`CC(C)(O/N=C(\C(=O)N[C@@H]1C(=O)N2C(C(=O)[O-])=C(C[n+]3ccccc3)CS[C@H]12)c1csc(N)n1)C(=O)O` [CEFTAZIDIME]: the MIC in experiment [17], in experiment [1], in [2], in experiment [3], in experiment [4] and in experiment [5] was over 256 µg/mL in each case. The MIC in [6], in [7], in experiment [18], in [19], in experiment [8] and in [9] was over 256 µg/mL in each case. The MIC in experiment [10], in [11], in experiment [20], in experiment [12], in experiment [13] and in experiment [14] was over 256 µg/mL in each case. For the same compound, the MIC in [15] and in experiment [16] was over 256 µg/mL in each case.

For `C[C@@H](O)[C@H]1C(=O)N2C(C(=O)O)=C(SCCNC=N)C[C@H]12` [IMIPENEM ANHYDROUS], the MIC in experiment [17] came out at 0.125 µg/mL (≈ 0.418 µM); in experiment [1], 0.125 µg/mL (≈ 0.418 µM); in [2] it was 1 µg/mL (≈ 3.34 µM); in experiment [3], 0.25 µg/mL (≈ 0.835 µM); in experiment [4], 1 µg/mL (≈ 3.34 µM); in experiment [5], 0.25 µg/mL (≈ 0.835 µM). The MIC in [6] was 0.25 µg/mL (≈ 0.835 µM); in [7], 0.25 µg/mL (≈ 0.835 µM); in experiment [18], 0.125 µg/mL (≈ 0.418 µM); in experiment [19] it was 0.125 µg/mL (≈ 0.418 µM); in experiment [8], 0.125 µg/mL (≈ 0.418 µM); in [9], 1 µg/mL (≈ 3.34 µM). Moreover, the MIC in experiment [10] came out at 1 µg/mL (≈ 3.34 µM); in experiment [11] it was 1 µg/mL (≈ 3.34 µM); in experiment [20] it was 0.125 µg/mL (≈ 0.418 µM); in experiment [12], 2 µg/mL (≈ 6.68 µM); in experiment [13], 1 µg/mL (≈ 3.34 µM); in [14], 1 µg/mL (≈ 3.34 µM). Further, the MIC is 2 µg/mL (≈ 6.68 µM) in experiment [15] and 1 µg/mL (≈ 3.34 µM) in experiment [16].

`CCN1CCN(C(=O)N[C@@H](C(=O)N[C@@H]2C(=O)N3[C@@H]2SC(C)(C)[C@@H]3C(=O)O)c2ccccc2)C(=O)C1=O` [PIPERACILLIN]: the MIC in [17] amounted to 32 µg/mL (≈ 61.8 µM); in experiment [1], 16 µg/mL (≈ 30.9 µM); in experiment [2], 16 µg/mL (≈ 30.9 µM); in [3], 16 µg/mL (≈ 30.9 µM); in [4], 32 µg/mL (≈ 61.8 µM); in [5], 32 µg/mL (≈ 61.8 µM). Moreover, the MIC in experiment [6] was found to be 32 µg/mL (≈ 61.8 µM); in experiment [7], 16 µg/mL (≈ 30.9 µM); in [18], 32 µg/mL (≈ 61.8 µM); in experiment [19], 32 µg/mL (≈ 61.8 µM); in [8], 16 µg/mL (≈ 30.9 µM); in experiment [9] it was 16 µg/mL (≈ 30.9 µM). Also, the MIC in experiment [10] worked out at 32 µg/mL (≈ 61.8 µM); in experiment [11], 32 µg/mL (≈ 61.8 µM); in [20], 32 µg/mL (≈ 61.8 µM); in experiment [12], 32 µg/mL (≈ 61.8 µM); in experiment [13] it was 32 µg/mL (≈ 61.8 µM); in experiment [14] it was 16 µg/mL (≈ 30.9 µM). Besides, the MIC was determined as 32 µg/mL (≈ 61.8 µM) in experiment [15] and 16 µg/mL (≈ 30.9 µM) in experiment [16].
